Some results are limits rather than exact numbers.

The target of the experiment is GCN2 (Homo sapiens, UniProt Q9P2K8). As to the kind of experiment: TR-FRET biochemical assay for inhibition of GCN2 (Example 106, for Example 1-4BB). Conditions: Table 8. In general terms: Time-resolved FRET reads energy transfer from a long-lived donor to a nearby acceptor.
Sequence of GCN2 (Q9P2K8 whole entry): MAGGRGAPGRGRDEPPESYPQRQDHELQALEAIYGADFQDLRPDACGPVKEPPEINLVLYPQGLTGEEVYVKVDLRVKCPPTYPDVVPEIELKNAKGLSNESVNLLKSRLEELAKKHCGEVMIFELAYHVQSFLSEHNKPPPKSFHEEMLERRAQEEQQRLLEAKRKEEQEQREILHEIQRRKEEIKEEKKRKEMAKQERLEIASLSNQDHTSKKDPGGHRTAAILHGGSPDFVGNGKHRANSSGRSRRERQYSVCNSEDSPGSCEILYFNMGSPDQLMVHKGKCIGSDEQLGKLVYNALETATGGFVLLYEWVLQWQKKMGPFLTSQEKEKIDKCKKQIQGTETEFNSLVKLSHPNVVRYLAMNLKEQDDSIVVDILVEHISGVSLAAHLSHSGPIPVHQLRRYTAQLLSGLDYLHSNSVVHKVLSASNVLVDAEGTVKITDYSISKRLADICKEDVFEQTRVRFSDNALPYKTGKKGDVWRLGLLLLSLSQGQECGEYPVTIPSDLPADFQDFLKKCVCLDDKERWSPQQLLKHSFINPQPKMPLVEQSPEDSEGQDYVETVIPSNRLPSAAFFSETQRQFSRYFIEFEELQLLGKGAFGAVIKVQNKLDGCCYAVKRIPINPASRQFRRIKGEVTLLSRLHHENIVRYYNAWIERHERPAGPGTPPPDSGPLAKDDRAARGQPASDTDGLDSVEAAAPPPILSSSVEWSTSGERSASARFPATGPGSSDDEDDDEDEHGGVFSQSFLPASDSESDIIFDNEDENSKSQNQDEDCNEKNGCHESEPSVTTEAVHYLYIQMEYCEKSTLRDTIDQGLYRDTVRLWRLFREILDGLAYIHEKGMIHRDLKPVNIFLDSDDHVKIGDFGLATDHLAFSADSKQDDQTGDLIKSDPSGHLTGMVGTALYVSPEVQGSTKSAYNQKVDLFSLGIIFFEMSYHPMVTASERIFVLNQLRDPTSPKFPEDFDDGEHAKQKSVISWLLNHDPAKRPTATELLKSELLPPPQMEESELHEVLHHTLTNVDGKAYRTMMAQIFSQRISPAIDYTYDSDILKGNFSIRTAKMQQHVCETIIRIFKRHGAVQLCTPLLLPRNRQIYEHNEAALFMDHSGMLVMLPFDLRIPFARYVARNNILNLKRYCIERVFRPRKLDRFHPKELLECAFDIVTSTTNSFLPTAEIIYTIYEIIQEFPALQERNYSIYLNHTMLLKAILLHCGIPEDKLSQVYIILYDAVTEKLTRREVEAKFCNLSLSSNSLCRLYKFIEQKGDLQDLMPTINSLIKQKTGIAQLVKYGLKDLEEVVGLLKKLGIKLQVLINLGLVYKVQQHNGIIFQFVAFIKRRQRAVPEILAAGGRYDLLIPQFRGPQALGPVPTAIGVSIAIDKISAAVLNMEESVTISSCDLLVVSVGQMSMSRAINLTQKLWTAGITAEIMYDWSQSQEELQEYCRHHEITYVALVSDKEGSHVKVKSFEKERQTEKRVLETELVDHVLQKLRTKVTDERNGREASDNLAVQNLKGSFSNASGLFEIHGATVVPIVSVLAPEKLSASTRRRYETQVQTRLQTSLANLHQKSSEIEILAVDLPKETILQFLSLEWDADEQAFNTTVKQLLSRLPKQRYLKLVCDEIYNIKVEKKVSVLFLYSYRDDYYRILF
As a reminder, the IC50 is the concentration that inhibits the measured activity by half. Low readings indicate higher potency, high ones lower potency. Turning to `COc1ncc(Cl)cc1S(=O)(=O)Nc1ccc(F)c(-c2ccc3c(C(=O)NCC(C)C)n[nH]c3c2F)c1F` [Example 2CJ, 6-(3-((5-chloro-2-methoxy-pyridine)-3-sulfonamido)-2,6-difluorophenyl)-7-fluoro-N-isobutyl-1H-indazole-3-carboxamide], the IC50 is below 500 nM.

Regarding `COc1ncc(Cl)cc1S(=O)(=O)Nc1ccc(F)c(-c2ccc3c(C(=O)NC(C)C)n[nH]c3c2F)c1F` [Example 2CK, 6-(3-((5-chloro-2-methoxy-pyridine)-3-sulfonamido)-2,6-difluorophenyl)-7-fluoro-N-isopropyl-1H-indazole-3-carboxamide], the IC50 is below 500 nM.

Take `COc1ncccc1S(=O)(=O)Nc1ncc(F)c(-c2ccc3c(-c4ncc[nH]4)n[nH]c3c2F)c1F` [Example 2CL, N-(3,5-difluoro-4-(7-fluoro-3-(1H-imidazol-2-yl)-1H-indazol-6-yl)pyridin-2-yl)-2-methoxypyridine-3-sulfonamide]: the IC50 was below 500 nM.

In turn, `Cc1ncc(Cl)cc1S(=O)(=O)Nc1ccc(F)c(-c2ccc3c(-c4ncc[nH]4)n[nH]c3c2F)c1F` [Example 2CM, 5-chloro-N-(2,4-difluoro-3-(7-fluoro-3-(1H-imidazol-2-yl)-1H-indazol-6-yl)phenyl)-2-methylpyridine-3-sulfonamide] showed an IC50 below 500 nM.

`O=S(=O)(Nc1ccc(F)c(-c2ccc3c(-c4ncc[nH]4)n[nH]c3c2F)c1F)c1cccc(Cl)c1` [Example 2CN, 3-chloro-N-(2,4-difluoro-3-(7-fluoro-3-(1H-imidazol-2-yl)-1H-indazol-6-yl)phenyl)ben-zenesulfonamide] returned an IC50 of 500 to 2500 nM.

Turning to `O=S(=O)(Nc1ccc(F)c(-c2ccc3c(-c4ncc[nH]4)n[nH]c3c2F)c1F)c1cccnc1` [Example 2CO, N-(2,4-difluoro-3-(7-fluoro-3-(1H-imidazol-2-yl)-1H-indazol-6-yl)phenyl)pyridine-3-sulfonamide], the IC50 lay within 2500 to 10000 nM.

In turn, `CCn1cc(S(=O)(=O)Nc2ccc(F)c(-c3ccc4c(-c5ncc[nH]5)n[nH]c4c3F)c2F)cn1` [Example 2D, N-(2,4-difluoro-3-(7-fluoro-3-(1H-imidazol-2-yl)-1H-indazol-6-yl)phenyl)-1-ethyl-1H-pyrazole-4-sulfonamide] registered an IC50 of 2500 to 10000 nM.

Regarding `Cc1nn(C)c(C)c1S(=O)(=O)Nc1ccc(F)c(-c2ccc3c(-c4ncc[nH]4)n[nH]c3c2F)c1F` [Example 2E, N-(2,4-difluoro-3-(7-fluoro-3-(1H-imidazol-2-yl)-1H-indazol-6-yl)phenyl)-1,3,5-trimethyl-1H-pyrazole-4-sulfonamide], the IC50 fell in the range of 500 to 2500 nM.

With `COc1cccc(S(=O)(=O)Nc2ccc(F)c(-c3ccc4c(-c5ncc[nH]5)n[nH]c4c3F)c2F)c1` [Example 2F, N-(2,4-difluoro-3-(7-fluoro-3-(1H-imidazol-2-yl)-1H-indazol-6-yl)phenyl)-3-methoxy-benzene-sulfonamide], the IC50 is below 500 nM.

For the compound `CC(C)c1ccc(S(=O)(=O)Nc2ccc(F)c(-c3ccc4c(-c5ncc[nH]5)n[nH]c4c3F)c2F)cc1` [Example 2G, N-(2,4-difluoro-3-(7-fluoro-3-(1H-imidazol-2-yl)-1H-indazol-6-yl)phenyl)-4-isopropyl-benzenesulfonamide], the IC50 was above 10000 nM.

`Cn1cc(S(=O)(=O)Nc2ccc(F)c(-c3ccc4c(-c5ncc[nH]5)n[nH]c4c3F)c2F)c(Cl)n1` [Example 2H, 3-chloro-N-(2,4-difluoro-3-(7-fluoro-3-(1H-imidazol-2-yl)-1H-indazol-6-yl)phenyl)-1-methyl-1H-pyrazole-4-sulfonamide] came in with an IC50 of 500 to 2500 nM.

As for `Cc1nn(C)cc1S(=O)(=O)Nc1ccc(F)c(-c2ccc3c(-c4ncc[nH]4)n[nH]c3c2F)c1F` [Example 2I, N-(2,4-difluoro-3-(7-fluoro-3-(1H-imidazol-2-yl)-1H-indazol-6-yl)phenyl)-1,3-dimethyl-1H-pyrazole-4-sulfonamide], the IC50 lay in the range of 500 to 2500 nM.

On to `COc1ncc(Cl)cc1S(=O)(=O)Nc1ccc(F)c(-c2ccc3c(-c4ncc[nH]4)n[nH]c3c2F)c1` [Example 2J, 5-chloro-N-(4-fluoro-3-(7-fluoro-3-(1H-imidazol-2-yl)-1H-indazol-6-yl)phenyl)-2-methoxy-pyridine-3-sulfonamide], for which the IC50 was below 500 nM.

The compound `COc1nn(C)cc1S(=O)(=O)Nc1ccc(F)c(-c2ccc3c(-c4ncc[nH]4)n[nH]c3c2F)c1F` [Example 2K, N-(2,4-difluoro-3-(7-fluoro-3-(1H-imidazol-2-yl)-1H-indazol-6-yl)phenyl)-3-methoxy-1-methyl-1H-pyrazole-4-sulfonamide] yielded an IC50 of 500 to 2500 nM.

As for `CC(C)c1cccc(S(=O)(=O)Nc2ccc(F)c(-c3ccc4c(-c5ncc[nH]5)n[nH]c4c3F)c2F)c1` [Example 2L, N-(2,4-difluoro-3-(7-fluoro-3-(1H-imidazol-2-yl)-1H-indazol-6-yl)phenyl)-3-isopropyl-benzenesulfonamide], the IC50 lay in the range of 2500 to 10000 nM.

Consider `COc1ncc(Cl)cc1S(=O)(=O)Nc1cccc(-c2ccc3c(-c4ncc[nH]4)n[nH]c3c2F)c1F` [Example 2M, 5-chloro-N-(2-fluoro-3-(7-fluoro-3-(1H-imidazol-2-yl)-1H-indazol-6-yl)phenyl)-2-methoxy-pyridine-3-sulfonamide], for which the IC50 is below 500 nM.

Consider `Cc1nn(C)cc1S(=O)(=O)Nc1cccc(-c2ccc3c(-c4ncc[nH]4)n[nH]c3c2F)c1F` [Example 2N, N-(2-fluoro-3-(7-fluoro-3-(1H-imidazol-2-yl)-1H-indazol-6-yl)phenyl)-1,3-dimethyl-1H-pyrazole-4-sulfonamide], for which the IC50 lay in the range of 2500 to 10000 nM.

`COc1ncc(Cl)cc1S(=O)(=O)Nc1cccc(-c2ccc3c(-c4ncc[nH]4)n[nH]c3c2F)c1Cl` [Example 2O, 5-chloro-N-(2-chloro-3-(7-fluoro-3-(1H-imidazol-2-yl)-1H-indazol-6-yl)phenyl)-2-methoxy-pyridine-3-sulfonamide] returned an IC50 below 500 nM.

`COc1ncc(Cl)cc1S(=O)(=O)Nc1cccc(-c2ccc3c(-c4ncc[nH]4)n[nH]c3c2F)c1C` [Example 2P, 5-chloro-N-(3-(7-fluoro-3-(1H-imidazol-2-yl)-1H-indazol-6-yl)-2-methylphenyl)-2-methoxypyridine-3-sulfonamide] returned an IC50 below 500 nM.

Consider `O=S(=O)(Nc1ccc(F)c(-c2ccc3c(-c4ncc[nH]4)n[nH]c3c2F)c1F)c1cccnc1CO` [Example 2Q, N-(2,4-difluoro-3-(7-fluoro-3-(1H-imidazol-2-yl)-1H-indazol-6-yl)phenyl)-2-(hydroxyl-methyl)pyridine-3-sulfonamide], for which the IC50 is 500 to 2500 nM.

With `Cn1ccnc1S(=O)(=O)Nc1ccc(F)c(-c2ccc3c(-c4ncc[nH]4)n[nH]c3c2F)c1F` [Example 2S, N-(2,4-difluoro-3-(7-fluoro-3-(1H-imidazol-2-yl)-1H-indazol-6-yl)phenyl)-1-methyl-1H-imidazole-2-sulfonamide], the IC50 lay in the range of 2500 to 10000 nM.

In turn, `COc1ncc(Cl)cc1S(=O)(=O)Nc1ccc(F)c(-c2ccc3c(-c4ncc[nH]4)n[nH]c3c2F)c1Cl` [Example 2T, 5-chloro-N-(2-chloro-4-fluoro-3-(7-fluoro-3-(1H-imidazol-2-yl)-1H-indazol-6-yl)phenyl)-2-methoxypyridine-3-sulfonamide] displayed an IC50 below 500 nM.

The values above are taken from patent US20220388964A1 (HiberCell, Inc., priority 2019, published 2022).
